{
  "source": "the SangsterLogP compilation",
  "test": "method code SF, from DOI: 10.1021/jm00128a037, PMID: 2754714",
  "data": [
    {"smiles": "CCCCOC(=O)Cc1cc(CN2CCCC2)c(O)c(CN2CCCC2)c1", "values": [
      {"measurement": "logP", "result": 0.18}
    ]},
    {"smiles": "CCCCOC(=O)CCc1cc(CN2CCCC2)c(O)c(CN2CCCC2)c1", "values": [
      {"measurement": "logP", "result": 0.3}
    ]},
    {"smiles": "CCCOC(=O)Cc1cc(CN2CCCC2)c(O)c(CN2CCCC2)c1", "values": [
      {"measurement": "logP", "result": -0.37}
    ]},
    {"smiles": "CCCOC(=O)CCc1cc(CN2CCCC2)c(O)c(CN2CCCC2)c1", "values": [
      {"measurement": "logP", "result": -0.11}
    ]},
    {"smiles": "CC(C)COC(=O)Cc1cc(CN2CCCC2)c(O)c(CN2CCCC2)c1", "values": [
      {"measurement": "logP", "result": 0.1}
    ]},
    {"smiles": "CCOC(=O)Cc1cc(CN2CCCC2)c(O)c(CN2CCCC2)c1", "values": [
      {"measurement": "logP", "result": -0.74}
    ]},
    {"smiles": "CC(C)COC(=O)CCc1cc(CN2CCCC2)c(O)c(CN2CCCC2)c1", "values": [
      {"measurement": "logP", "result": 0.19}
    ]},
    {"smiles": "CCCCOC(=O)CCCc1cc(CN2CCCC2)c(O)c(CN2CCCC2)c1", "values": [
      {"measurement": "logP", "result": 1.11}
    ]},
    {"smiles": "CC(C)COC(=O)CCCc1cc(CN2CCCC2)c(O)c(CN2CCCC2)c1", "values": [
      {"measurement": "logP", "result": 0.86}
    ]},
    {"smiles": "CC(C)OC(=O)CCc1cc(CN2CCCC2)c(O)c(CN2CCCC2)c1", "values": [
      {"measurement": "logP", "result": -0.21}
    ]},
    {"smiles": "CC(C)OC(=O)Cc1cc(CN2CCCC2)c(O)c(CN2CCCC2)c1", "values": [
      {"measurement": "logP", "result": -0.41}
    ]}
  ]
}
